Assay results reported in paper PMC10223470 (Molecules, 2023).
Counter-ions that a name gives are not always drawn.

biological target: T1, human D2S receptor (Homo sapiens, UniProt P14416); experiment: Competition radioligand binding at human D2 receptor ([3H]-Spiperone, CHO-K1 membranes); conditions: D2 receptor affinity
T1 construct: expressed in transfected cells; host or cells: CHO-K1
Description: Experiments were carried out in membranes isolated from a CHO-K1 cell line stably overexpressing the cloned human D2S receptor.
Competition radioligand binding assays were performed on membranes isolated from cell lines stably expressing the cloned human receptors, which were either in-house or commercially available. […] Assays (250 μL assay final volume) were carried out in 96-well polypropylene plates in duplicate. In short, the suspension of appropriate membrane protein was incubated in an assay buffer with the addition of the corresponding radioligand, in the presence or absence of a tested compound or reference compound. […] After the incubation, the content of the test plates was transferred to 96 well plates with glass fiber filter GF/B or GF/C, previously pretreated with polyethyleneimine (PEI), and rapidly filtered with the use of vacuum, followed by rapid washing with cold (4 °C) wash buffer. After that, the filter plates were dried at 60 °C for 1 h. Then, 30 μL of liquid scintillation cocktail (UniverSol-ES, MP Biomedicals, Solon, OH, USA) was added to each well of the filter plates, and the radioactivity was measured in a MicroBeta^2 microplate scintillation counter (PerkinElmer, Madrid, Spain).
Competition binding curves were fitted to a one-site competition binding model (Fit Ki) with the use of Prism 7 software (GraphPad, San Diego, CA, USA). logKi (log of the equilibrium dissociation constant (Ki)) values were obtained after constraining the concentration of radioligand employed in the assay and its dissociation constant (KD) as determined in saturation radioligand binding assays.

T1 sequence (P14416 1-414 isoform P14416-2): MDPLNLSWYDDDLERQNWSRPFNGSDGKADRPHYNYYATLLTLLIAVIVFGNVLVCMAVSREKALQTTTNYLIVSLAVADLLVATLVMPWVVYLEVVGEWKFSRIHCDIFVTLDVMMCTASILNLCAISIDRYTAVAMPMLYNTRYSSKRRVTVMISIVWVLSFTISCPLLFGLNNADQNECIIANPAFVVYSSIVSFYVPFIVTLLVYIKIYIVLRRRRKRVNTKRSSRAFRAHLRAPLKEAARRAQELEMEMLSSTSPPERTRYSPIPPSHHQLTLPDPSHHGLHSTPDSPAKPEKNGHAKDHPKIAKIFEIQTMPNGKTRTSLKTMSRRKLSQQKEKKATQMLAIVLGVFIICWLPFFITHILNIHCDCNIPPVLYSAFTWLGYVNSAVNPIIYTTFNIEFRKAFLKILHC

Row | SMILES | decrease of activity compared to the initial compound (D2AAK2) [fold]
1 | O=C(CCN1C(=O)CCOc2ccccc21)Nc1ccc(C(F)(F)F)cc1 [Compound 4, 3-(4-Oxo-3,4-dihydrobenzo[b][1,4]oxazepin-5(2H)-yl)-N-(4-(trifluoromethyl)phenyl)propanamide] | 10

same assay, conditions: mean ± SEM of 2–3 independent experiments in duplicate; read-out: huD2 Ki

Row | SMILES | Ki [µM]
2 | O=C(CCN1C(=O)CCOc2ccccc21)Nc1ccc(C(F)(F)F)cc1 [Compound 4, 3-(4-Oxo-3,4-dihydrobenzo[b][1,4]oxazepin-5(2H)-yl)-N-(4-(trifluoromethyl)phenyl)propanamide] | 3.846 ± 0.035

same assay, conditions: read-out: huD2 % inh. at 10 µM

Row | SMILES | inhibition at 10 µM [%]
3 | O=C(CCN1C(=O)COc2ccccc21)Nc1ccc(C(F)(F)F)cc1 [Compound 1, 3-(3-Oxo-2,3-dihydro-4H-benzo[b][1,4]oxazin-4-yl)-N-(4-(trifluoromethyl)phenyl)propanamide] | 35 ± 14
4 | O=C(CCn1c(=O)sc2ccccc21)Nc1ccc(C(F)(F)F)cc1 [Compound 2, 3-(2-Oxobenzo[d]thiazol-3(2H)-yl)-N-(4-(trifluoromethyl)phenyl)propanamide] | 11 ± 5
5 | O=C(CCn1c(=O)oc2ccccc21)Nc1ccc(C(F)(F)F)cc1 [Compound 3, 3-(2-Oxobenzo[d]oxazol-3(2H)-yl)-N-(4-(trifluoromethyl)phenyl)propanamide] | 8 ± 8
6 | O=C(CCN1CCSCC1=O)Nc1ccc(C(F)(F)F)cc1 [Compound 5, 3-(3-Oxothiomorpholino)-N-(4-(trifluoromethyl)phenyl)propanamide] | 14 ± 10
7 | O=C(CCN1CCCCC1=O)Nc1ccc(C(F)(F)F)cc1 [Compound 6, 3-(2-Oxopiperidin-1-yl)-N-(4-(trifluoromethyl)phenyl)propanamide] | 14 ± 11
8 | Cc1ccccc1S(=O)(=O)NCCC(=O)Nc1ccc(C(F)(F)F)cc1 [Compound 7, 3-((2-Methylphenyl)sulfonamido)-N-(4-(trifluoromethyl)phenyl)propanamide] | 13 ± 13
9 | Cc1ccc(S(=O)(=O)NCCC(=O)Nc2ccc(C(F)(F)F)cc2)cc1 [Compound 8, 3-((4-Methylphenyl)sulfonamido)-N-(4-(trifluoromethyl)phenyl)propanamide] | 8 ± 7
10 | O=C(CN1C(=O)CSc2ccccc21)Nc1ccc(C(F)(F)F)cc1 [Compound 9, 2-(3-Oxo-2,3-dihydro-4H-benzo[b][1,4]thiazin-4-yl)-N-(4-(trifluoromethyl)phenyl)acetamide] | 8 ± 8
11 | O=C(CCN1C(=O)CSc2ccccc21)Nc1ccccc1 [Compound 10, 3-(3-Oxo-2,3-dihydro-4H-benzo[b][1,4]thiazin-4-yl)-N-phenylpropanamide] | 39 ± 4
12 | O=C(CCN1C(=O)CSc2ccccc21)Nc1ccccc1C(F)(F)F [Compound 11, 3-(3-Oxo-2,3-dihydro-4H-benzo[b][1,4]thiazin-4-yl)-N-(2-(trifluoromethyl)phenyl)propanamide] | 9 ± 1
13 | Cc1ccccc1NC(=O)CCN1C(=O)CSc2ccccc21 [Compound 12, 3-(3-Oxo-2,3-dihydro-4H-benzo[b][1,4]thiazin-4-yl)-N-(o-tolyl)propanamide] | 10
14 | Cc1cccc(NC(=O)CCN2C(=O)CSc3ccccc32)c1 [Compound 13, 3-(3-Oxo-2,3-dihydro-4H-benzo[b][1,4]thiazin-4-yl)-N-(m-tolyl)propanamide] | 32 ± 4
15 | O=C(CCN1C(=O)CSc2ccccc21)Nc1ccccc1Cl [Compound 15, N-(2-Chlorophenyl)-3-(3-oxo-2,3-dihydro-4H-benzo[b][1,4]thiazin-4-yl)propanamide] | 9 ± 3
16 | O=C(CCN1C(=O)CSc2ccccc21)Nc1cccc(Cl)c1 [Compound 16, N-(3-Chlorophenyl)-3-(3-oxo-2,3-dihydro-4H-benzo[b][1,4]thiazin-4-yl)propanamide] | 42 ± 8
17 | COc1ccccc1NC(=O)CCN1C(=O)CSc2ccccc21 [Compound 18, N-(2-Methoxyphenyl)-3-(3-oxo-2,3-dihydro-4H-benzo[b][1,4]thiazin-4-yl)propanamide] | 6
18 | COc1cccc(NC(=O)CCN2C(=O)CSc3ccccc32)c1 [Compound 19, N-(3-Methoxyphenyl)-3-(3-oxo-2,3-dihydro-4H-benzo[b][1,4]thiazin-4-yl)propanamide] | 10 ± 4
19 | COc1ccc(NC(=O)CCN2C(=O)CSc3ccccc32)cc1 [Compound 20, N-(4-Methoxyphenyl)-3-(3-oxo-2,3-dihydro-4H-benzo[b][1,4]thiazin-4-yl)propanamide] | 47 ± 1
20 | O=C(CCN1C(=O)CSc2ccccc21)Nc1ccccc1[N+](=O)[O-] [Compound 21, N-(2-Nitrophenyl)-3-(3-oxo-2,3-dihydro-4H-benzo[b][1,4]thiazin-4-yl)propanamide] | 5 ± 3
21 | O=C(CCN1C(=O)CSc2ccccc21)Nc1cccc([N+](=O)[O-])c1 [Compound 22, N-(3-Nitrophenyl)-3-(3-oxo-2,3-dihydro-4H-benzo[b][1,4]thiazin-4-yl)propanamide] | 27 ± 2

tested on: mice; experiment: Amphetamine-induced hyperactivity in mice; assay type: in vivo; conditions: amphetamine 3 mg/kg s.c.
Description: (§1) The experiments were carried out on 6 weeks old naive Swiss male mice (Experimental Medicine Center (OMD), Lublin, Poland), weighing 28–30 g. The cages with mice were located in air-conditioned rooms maintaining the ambient temperature within the range of 23–25 °C. The animals were provided with a natural 12 h day/night cycle, replicating the day and night mode. Each testing group was represented by 8–10 animals, depending on the research schedule. All experiments were conducted according to the National Institute of Health Guidelines for the Care and Use of Laboratory Animals (8th edition) and to the European Community Council Directive for the Care and Use of Laboratory Animals of 22 September 2010 (2010/63/EU) and were approved by the Local Ethical Committee (number of ethical approval: 147/2018).
(§2) Compound 17 (25, 50, 75 mg/kg) was suspended in 1% Tween 80 in saline solution and was administered intraperitoneally (i.p.) 60 min before the test. Diazepam (DZ, Relanium, Polfa, Poland) at a dose of 1 mg/kg was diluted in 0.9% saline containing 1% Tween 80 and was administered subcutaneously (s.c.), 60 min before the test. Imipramine hydrochloride (30 mg/kg, Sigma-Aldrich was administered intraperitoneally (i.p.) 60 min before the test. D-amphetamine sulfate (3 mg/kg; Sigma-Aldrich, USA) was given subcutaneously (s.c.). Prior to administration, the agent was dissolved in saline and injected 30 min before the test. Control animals received an (i.p.) or (s.c.) injection of a respective vehicle. All compounds were injected in a manner generally accepted in experimental pharmacology, in an amount of 10 mL/kg body weight.
The measurement of the spontaneous locomotor activity was carried out using the OptoVarimex 4 Auto-Track device (Columbus Instruments, Columbus, OH, USA). Tested animals are kept in cages for 30 min. Their activity was recorded as interruptions of the light beams after 10 and 30 min of the test, and it was calculated automatically as a traveled distance in cm (±SEM). To determine whether compound 17 has an influence on amphetamine-induced hyperactivity, each mouse received 17 (25, 50 and 75 mg/kg; i.p.) and amphetamine (3 mg/kg; s.c.) 30 min after injection of 17 or vehicle and then spontaneous locomotor activity was measured.

Row | SMILES | effect on locomotor activity compared to the control group after 10 min | effect on locomotor activity compared to the control group after 30 min
22 | C[C@H](N)Cc1ccccc1 [amphetamine, D-amphetamine sulfate, reference compound] | increased mice locomotor activity | increased mice locomotor activity

tested on: mice; experiment: Elevated plus-maze (EPM) test; assay type: in vivo; conditions: 1 mg/kg s.c., 60 min before the test; p < 0.05 versus vehicle
Description: as §1, §2
The experiment was carried out on mice according to the method of Lister. […] The number of entries into the open arms and the time spent in these arms were scored for a 5-min test period. […] The following measures were obtained from the test: the total number of arm entries, the percentage of entries into the open arms, the time spent in the open arms expressed as a percentage of the time spent in both the open and closed arms. […]

Row | SMILES | time spent in the open arms of the maze
23 | CN1C(=O)CN=C(c2ccccc2)c2cc(Cl)ccc21 [Diazepam, reference compound] | statistically significant increase

tested on: mice; experiment: Forced swim test (FST); assay type: in vivo; conditions: imipramine 30 mg/kg i.p., 60 min before the test; p < 0.001
Description: The experiments were carried out on 6 weeks old naive Swiss male mice (Experimental Medicine Center (OMD), Lublin, Poland), weighing 28–30 g. The cages with mice were located in air-conditioned rooms maintaining the ambient temperature within the range of 23–25 °C. The animals were provided with a natural 12 h day/night cycle, replicating the day and night mode. Each testing group was represented by 8–10 animals, depending on the research schedule. All experiments were conducted according to the National Institute of Health Guidelines for the Care and Use of Laboratory Animals (8th edition) and to the European Community Council Directive for the Care and Use of Laboratory Animals of 22 September 2010 (2010/63/EU) and were approved by the Local Ethical Committee (number of ethical approval: 147/2018). Compound 17 (25, 50, 75 mg/kg) was suspended in 1% Tween 80 in saline solution and was administered intraperitoneally (i.p.) 60 min before the test. […] Imipramine hydrochloride (30 mg/kg, Sigma-Aldrich was administered intraperitoneally (i.p.) 60 min before the test. […] Sigma-Aldrich, USA) was given subcutaneously (s.c.). Prior to administration, the agent was dissolved in saline and injected 30 min before the test. Control animals received an (i.p.) or (s.c.) injection of a respective vehicle. All compounds were injected in a manner generally accepted in experimental pharmacology, in an amount of 10 mL/kg body weight. Forced Swim Test was carried out according to the method of Porsolt et al.. It is a standard behavioral test, called the resignation test, which is used to determine the effectiveness of antidepressant drugs in laboratory rodents. Each mouse was placed individually for 6 min into a glass cylinder (height 25 cm, diameter 10 cm) with 15 cm of water at 23–25 °C. After the first 2 min of the test, the total duration of immobility (in seconds) was measured. An animal was judged to be immobile when it ceased struggling and remained floating motionless and making only movements allowing it to keep the head just above the surface of the water.

Row | SMILES | effect on immobility time
24 | CN(C)CCCN1c2ccccc2CCc2ccccc21 [imipramine, Imipramine hydrochloride, reference compound] | statistically significant decrease
